Tests used:
Type in all cases: cell-based
NCI-H226 cells = assay: NCI-H226 proliferation assay (in house); details: Homo sapiens, 120 h, 5 days, Cell TiterGlo, 20-point 1:2 dilution from 20 μM
How it was run: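 Viability by CellTiter-Glo luminescence after 5-day compound exposure at 37 °C, 5% CO2. Compounds added 24 h post-seeding (500 cells/well, RPMI 1640 with 10% FBS) as 20-point, 2-fold series from 20 μM final, triplicate wells.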

[1] = test system: transcriptional activity of TEADs; assay: TEAD reporter assay (MCF7 TEAD-LUC reporter cells); details: Homo sapiens, 24 hours, BrightGlo luminescence
How it was run: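 Luminescence (BrightGlo) was read after 24 h of compound treatment at 37 °C, 5 % CO2. Cells had been seeded at 5,000 per well in DMEM with 10 % FBS and insulin and rested 24 h first. Dosing used 20 points, 1:2 dilution from 20 μM final, triplicates.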

IMR32 cells = assay: IMR32 cytotoxicity assay; details: Homo sapiens, IMR-32, 72 h, 3 days, Cell TiterGlo
Description: IMR32 cells were obtained from American Type Culture Collection (ATCC, CCL-127) and cultured in DMEM (Corning, 10-013-CV) supplemented with 10% fetal bovine serum (Gibco, 10438-026) and 1% penicillin-streptomycin (Gibco, 15070063). Cells were trypsinized, resuspended in growth medium, and diluted to a concentrated of 20,000 cells/mL. 1,000 cells, 50 μL of cell suspension, per well were then plated in a white 384-well plate (Corning) and incubated at 37° C., 5% CO2. After 24 hours incubation, 100 nL of test compounds in DMSO, 20-point 1:2 dilution starting from 20 μM (final concentration) in triplicate, were transferred to each well using an Agilent Bravo instrument outfitted with a pintool head. Cells were incubated at 37° C., 5% CO2 for 3 days followed by the addition of 30 μL of Cell TiterGlo (Promega; diluted 1:6 in water) to each well and luminescence values recorded using an EnVision plate reader. […]

IC50 (NCI-H226 cells)	IC50 [1]	Compound	IC50 (IMR32 cells)
8.24 µM	3760 nM	C=CC(=O)NC1CN(c2nccnc2Nc2ccc(C(F)(F)F)cc2)C1 [Example 3, N-(1-(3-((4-(trifluoromethyl)phenyl)amino)pyrazin-2-yl)azetidin-3-yl) acrylamide]	10000 nM
0.0115 µM	0.9 nM	C=CC(=O)N1CCN(c2nccnc2Oc2ccc(C(F)(F)F)cc2)CC1 [Example 69, 1-(4-(3-(4-(trifluoromethyl)phenoxy)pyrazin-2-yl)piperazin-1-yl)prop-2-en-1-one]	> 20000 nM
> 20 µM	2500 nM	C=CC(=O)N1CCN(c2nccnc2Nc2ccc(C(F)(F)F)cc2)C[C@H]1CO [Example 16, (S)-1-(2-(hydroxymethyl)-4-(3-((4-(trifluoromethyl)phenyl)amino)pyrazin-2-yl)piperazin-1-yl)prop-2-en-1-one]	5000 nM
0.006 µM	2.1 nM	C=CC(=O)N1CC=C(c2nccnc2Nc2ccc(C(F)(F)F)cc2)CC1 [Example 25, 1-[4-(3-{[4-(trifluoromethyl)phenyl]amino}pyrazin-2-yl)-3,6-dihydro-2H-pyridin-1-yl]prop-2-en-1-one]	15500 nM
0.0159 µM	3.48 nM	C=CC(=O)N1CCN(c2nccnc2Nc2ccc(C(F)(F)F)cc2)C[C@H]1C [Example 13, (R)-1-(2-methyl-4-(3-((4-(trifluoromethyl)phenyl)amino)pyrazin-2-yl)piperazin-1-yl)prop-2-en-1-one]	> 10000 nM
4.64 µM	331 nM	C=CC(=O)N1CCC(N(C)c2ccnc(Nc3ccc(C(F)(F)F)cc3)n2)CC1 [Example 124, 1-(4-(methyl(2-((4-(trifluoromethyl)phenyl)amino)pyrimidin-4-yl)amino)piperidin-1-yl)prop-2-en-1-one]	4200 nM
0.0246 µM	2.94 nM	C=CC(=O)N1CCN(c2nccnc2Nc2ccc(C(F)(F)F)cc2)C[C@@H]1C [Example 14, (S)-1-(2-methyl-4-(3-((4-(trifluoromethyl)phenyl)amino)pyrazin-2-yl)piperazin-1-yl)prop-2-en-1-one]	> 10000 nM
0.0199 µM	41 nM	C=CC(=O)N1CCN(c2nccnc2Nc2ccc(C(F)(F)F)cc2)C(C)C1 (stereo not drawn) [Example 24, 1-(3-methyl-4-(3-((4-(trifluoromethyl)phenyl)amino)pyrazin-2-yl)piperazin-1-yl)prop-2-en-1-one]	2500 nM
0.0904 µM	11.4 nM	C=CC(=O)N1CCN(c2nccnc2-c2ccc(C(F)(F)F)cc2)CC1 [Example 28, 1-(4-(3-(4-(trifluoromethyl)phenyl)pyrazin-2-yl)piperazin-1-yl)prop-2-en-1-one]	> 10000 nM
13.7 µM	408 nM	C=CC(=O)N[C@H]1C[C@@H](Nc2nccnc2Nc2ccc(C(F)(F)F)cc2)C1 [Example 5, N-((ls,3s)-3-((3-((4-(trifluoromethyl)phenyl)amino)pyrazin-2-yl)amino)cyclobutyl) acrylamide]	> 20000 nM
0.507 µM	36.5 nM	C#CC(=O)N1CCN(c2nccnc2Nc2ccc(C(F)(F)F)cc2)CC1 [Example 173, 1-(4-(3-((4-(trifluoromethyl)phenyl)amino)pyrazin-2-yl)piperazin-1-yl)prop-2-yn-1-one]	202 nM
0.101 µM	10.2 nM	C=CC(=O)N1CCN(c2nccnc2Nc2ccc(F)cc2)CC1 [Example 33, 1-(4-(3-((4-fluorophenyl)amino)pyrazin-2-yl)piperazin-1-yl)prop-2-en-1-one]	> 20000 nM

Compound	IC50 (NCI-H226 cells)	IC50 [1]	IC50 (IMR32 cells)
CC(C)(C#N)N1CCN(c2nccnc2Nc2ccc(C(F)(F)F)cc2)CC1 [Example 176, 2-methyl-2-(4-(3-((4-(trifluoromethyl)phenyl)amino)pyrazin-2-yl)piperazin-1-yl)propanenitrile]	9.95 µM	2500 nM	> 10000 nM

From US20250206722A1, “SMALL MOLECULE INHIBITORS OF TEA DOMAIN FAMILY MEMBERS” (The Scripps Research Institute, priority 2022, published 2025)
